Columns and labels:
[1] = molecular target: T1, Cytochrome P450 3A4 (Homo sapiens, UniProt P08684); assay: Inhibition of human recombinant CYP3A4 in presence of reduced glutathione; assay type: ADME; conditions: recombinant enzyme
[2] = molecular target: T2, Cytochrome P450 2C9 (Homo sapiens, UniProt P11712); assay: Inhibition of human recombinant CYP2C9 in presence of reduced glutathione; assay type: ADME; conditions: recombinant enzyme
[3] = molecular target: T3, Cytochrome P450 2D6 (Homo sapiens, UniProt P10635); assay: Inhibition of human recombinant CYP2D6 in presence of reduced glutathione; assay type: ADME; conditions: recombinant enzyme
T3 sequence (P10635 whole entry): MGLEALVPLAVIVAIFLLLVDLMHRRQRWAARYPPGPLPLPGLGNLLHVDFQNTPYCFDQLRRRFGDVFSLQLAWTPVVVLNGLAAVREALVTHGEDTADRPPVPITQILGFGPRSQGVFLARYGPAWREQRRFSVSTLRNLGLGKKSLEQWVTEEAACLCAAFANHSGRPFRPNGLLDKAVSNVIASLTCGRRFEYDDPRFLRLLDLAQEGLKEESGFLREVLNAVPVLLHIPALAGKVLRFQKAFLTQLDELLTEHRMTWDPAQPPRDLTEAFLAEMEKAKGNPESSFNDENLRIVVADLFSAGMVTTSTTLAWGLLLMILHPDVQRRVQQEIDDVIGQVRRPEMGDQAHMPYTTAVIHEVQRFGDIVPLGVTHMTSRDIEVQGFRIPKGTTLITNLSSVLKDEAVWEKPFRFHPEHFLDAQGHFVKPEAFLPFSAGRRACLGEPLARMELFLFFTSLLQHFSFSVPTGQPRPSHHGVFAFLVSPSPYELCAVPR

[4] = molecular target: T4, Cytochrome P450 2B6 (Homo sapiens, UniProt P20813); assay: Inhibition of human recombinant CYP2B6 in presence of reduced glutathione; assay type: ADME; conditions: recombinant enzyme
T4 sequence (P20813 whole entry): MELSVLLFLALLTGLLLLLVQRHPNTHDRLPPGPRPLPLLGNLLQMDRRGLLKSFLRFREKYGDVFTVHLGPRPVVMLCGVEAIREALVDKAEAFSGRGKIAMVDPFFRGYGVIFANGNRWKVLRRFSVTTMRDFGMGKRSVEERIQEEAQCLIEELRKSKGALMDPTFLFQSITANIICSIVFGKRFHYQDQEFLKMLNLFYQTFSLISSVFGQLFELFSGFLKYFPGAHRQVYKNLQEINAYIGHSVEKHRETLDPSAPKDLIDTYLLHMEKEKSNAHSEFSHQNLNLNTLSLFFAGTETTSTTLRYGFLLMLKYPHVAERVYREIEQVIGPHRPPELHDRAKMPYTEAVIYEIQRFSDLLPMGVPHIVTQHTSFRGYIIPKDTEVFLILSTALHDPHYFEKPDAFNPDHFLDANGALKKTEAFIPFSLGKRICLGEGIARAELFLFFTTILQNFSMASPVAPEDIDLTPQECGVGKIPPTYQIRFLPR

[5] = molecular target: T5, Cytochrome P450 1A2 (Homo sapiens, UniProt P05177); assay: Inhibition of human recombinant CYP1A2; conditions: for log(1/IC50): human
T5 sequence (P05177 whole entry): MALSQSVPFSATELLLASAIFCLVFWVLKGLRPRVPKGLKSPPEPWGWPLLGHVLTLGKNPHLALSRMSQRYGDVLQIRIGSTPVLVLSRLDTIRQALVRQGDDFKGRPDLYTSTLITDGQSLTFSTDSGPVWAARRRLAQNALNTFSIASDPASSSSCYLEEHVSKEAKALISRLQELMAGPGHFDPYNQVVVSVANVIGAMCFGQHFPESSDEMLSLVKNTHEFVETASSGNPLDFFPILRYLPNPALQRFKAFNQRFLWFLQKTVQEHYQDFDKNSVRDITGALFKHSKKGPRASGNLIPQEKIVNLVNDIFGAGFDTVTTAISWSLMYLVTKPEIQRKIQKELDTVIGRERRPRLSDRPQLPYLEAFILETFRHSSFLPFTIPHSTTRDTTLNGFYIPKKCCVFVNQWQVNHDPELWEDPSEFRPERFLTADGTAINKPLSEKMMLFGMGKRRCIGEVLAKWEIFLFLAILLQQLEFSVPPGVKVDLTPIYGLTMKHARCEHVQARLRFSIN

[6] = molecular target: T4, Cytochrome P450 2B6; assay: Inhibition of human recombinant CYP2B6 at 100 uM; assay type: ADME; conditions: recombinant enzyme
[7] = molecular target: T1, Cytochrome P450 3A4; assay: Inhibition of human recombinant CYP3A4 at 100 uM; assay type: ADME; conditions: recombinant enzyme
[8] = molecular target: T3, Cytochrome P450 2D6; assay: Inhibition of human recombinant CYP2D6 at 100 uM; assay type: ADME; conditions: recombinant enzyme
[9] = molecular target: T1, Cytochrome P450 3A4; assay: Inhibition of human recombinant CYP3A4; assay type: ADME
[10] = molecular target: T2, Cytochrome P450 2C9; assay: Inhibition of human recombinant CYP2C9; assay type: ADME
[11] = molecular target: T3, Cytochrome P450 2D6; assay: Inhibition of human recombinant CYP2D6; assay type: ADME

T1 sequence (P08684 whole entry): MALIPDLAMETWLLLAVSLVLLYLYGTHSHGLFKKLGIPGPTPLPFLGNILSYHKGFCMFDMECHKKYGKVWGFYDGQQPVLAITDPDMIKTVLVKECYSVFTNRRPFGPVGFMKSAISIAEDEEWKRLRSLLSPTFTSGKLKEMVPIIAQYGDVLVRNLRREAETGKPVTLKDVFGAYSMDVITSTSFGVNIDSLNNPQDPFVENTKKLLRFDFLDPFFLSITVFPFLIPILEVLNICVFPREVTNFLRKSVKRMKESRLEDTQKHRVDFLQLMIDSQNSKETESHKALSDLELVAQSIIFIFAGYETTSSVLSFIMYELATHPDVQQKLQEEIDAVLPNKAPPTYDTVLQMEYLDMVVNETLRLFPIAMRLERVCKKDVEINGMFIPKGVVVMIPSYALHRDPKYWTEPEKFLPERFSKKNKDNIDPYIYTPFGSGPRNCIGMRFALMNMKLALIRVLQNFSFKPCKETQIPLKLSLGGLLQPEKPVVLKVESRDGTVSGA
T2 sequence (P11712 whole entry): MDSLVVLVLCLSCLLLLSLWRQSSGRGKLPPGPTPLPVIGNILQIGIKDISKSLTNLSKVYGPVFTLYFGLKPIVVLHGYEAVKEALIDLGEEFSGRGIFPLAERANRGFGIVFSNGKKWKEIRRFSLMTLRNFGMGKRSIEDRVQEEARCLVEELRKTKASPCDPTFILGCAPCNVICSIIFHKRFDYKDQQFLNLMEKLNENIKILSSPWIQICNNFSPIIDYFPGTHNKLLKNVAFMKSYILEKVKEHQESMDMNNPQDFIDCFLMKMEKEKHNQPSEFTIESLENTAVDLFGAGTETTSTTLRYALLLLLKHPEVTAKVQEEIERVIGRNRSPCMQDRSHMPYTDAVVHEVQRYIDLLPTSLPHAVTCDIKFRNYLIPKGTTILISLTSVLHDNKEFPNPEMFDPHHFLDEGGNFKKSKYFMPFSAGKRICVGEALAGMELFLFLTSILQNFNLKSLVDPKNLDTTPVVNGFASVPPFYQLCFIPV

Row | Activity [1] | Activity [2] | Activity [3] | Activity [4] | IC50 [5] [µM] | log(1/IC50) ([5]; recombinant CYP1A2) | Activity [6] | Activity [7] | Activity [8] | IC50 [9] [µM] | IC50 [10] [µM] | IC50 [11] [µM] | log(1/IC50) [5] | SMILES
1 | Not Active | Not Active | Not Active | Not Active | – | – | – | – | – | – | – | – | – | O=C1/C(=C/c2ccc(Cl)cc2)CC/C1=C\c1ccc(Cl)cc1
2 | Not Active | Not Active | Not Active | Not Active | 10.4 | 1.983 | Not Active | Not Active | Not Active | – | – | – | – | O=C1/C(=C/c2ccc(C(F)(F)F)cc2)CCC/C1=C\c1ccc(C(F)(F)F)cc1
3 | Not Active | Not Active | Not Active | Not Active | 45.6 | 1.341 | – | – | – | 5.1 | 9.9 | – | – | O=C1/C(=C/c2ccc(O)cc2)CC/C1=C\c1ccc(O)cc1
4 | Not Active | Not Active | Not Active | Not Active | – | – | – | – | – | – | 1.8 | 2 | – | O=C(/C=C/c1ccc(O)cc1)/C=C/c1ccc(O)cc1
5 | Not Active | Not Active | Not Active | Not Active | 36.7 | – | – | – | – | 73.5 | 37.7 | – | 1.435 | CCc1cc(/C=C2\CC/C(=C\c3cc(CC)c(O)c(CC)c3)C2=O)cc(CC)c1O
6 | Not Active | Not Active | Not Active | Not Active | – | – | – | – | – | – | 28.3 | – | – | Cc1cc(/C=C2\CC/C(=C\c3cc(C)c(O)c(C)c3)C2=O)cc(C)c1O
7 | Not Active | Not Active | Not Active | Not Active | – | – | – | – | – | – | – | – | – | Cc1ccc(/C=C/C(=O)/C=C/c2ccc(C)cc2)cc1
8 | Not Active | Not Active | Not Active | Not Active | 3.4 | 2.469 | Not Active | Not Active | Not Active | – | – | – | – | O=C1/C(=C/c2cccc(Cl)c2)CCC/C1=C\c1cccc(Cl)c1
9 | Not Active | Not Active | Not Active | Not Active | 28 | 1.553 | – | – | – | – | – | – | – | CC(C)(C)c1ccc(/C=C/C(=O)/C=C/c2ccc(C(C)(C)C)cc2)cc1
10 | Not Active | Not Active | Not Active | Not Active | – | – | Not Active | Not Active | Not Active | – | 1 | – | – | O=C1/C(=C/c2ccc(O)cc2)CCC/C1=C\c1ccc(O)cc1
11 | Not Active | Not Active | Not Active | Not Active | 38.9 | 1.41 | – | – | – | 64.9 | 2.8 | – | – | COc1cc(/C=C2\CC/C(=C\c3ccc(O)c(OC)c3)C2=O)ccc1O
12 | Not Active | Not Active | Not Active | Not Active | 3.4 | 2.469 | – | – | – | – | 21.3 | – | – | O=C(/C=C/c1cccc(Cl)c1)/C=C/c1cccc(Cl)c1
13 | Not Active | Not Active | Not Active | Not Active | – | – | – | – | – | – | 67.3 | 68.5 | – | O=C(/C=C/c1ccccc1)/C=C/c1ccccc1
14 | Not Active | Not Active | Not Active | Not Active | – | – | – | – | – | – | – | – | – | O=C1/C(=C/c2ccc(C(F)(F)F)cc2)CC/C1=C\c1ccc(C(F)(F)F)cc1
15 | Not Active | Not Active | Not Active | Not Active | 21 | 1.678 | Not Active | Not Active | Not Active | – | – | – | – | Cc1ccc(/C=C2\CCC/C(=C\c3ccc(C)cc3)C2=O)cc1
16 | Not Active | Not Active | Not Active | Not Active | – | – | Not Active | Not Active | Not Active | – | – | – | – | Cc1cc(/C=C2\CCC/C(=C\c3cc(C)c(O)c(C)c3)C2=O)cc(C)c1O
17 | Not Active | Not Active | Not Active | Not Active | 11 | 1.959 | Not Active | Not Active | Not Active | – | – | – | – | COc1ccc(/C=C2\CCC/C(=C\c3ccc(OC)cc3)C2=O)cc1
18 | Not Active | Not Active | Not Active | Not Active | – | – | – | – | – | – | – | – | – | O=C1/C(=C/c2ccc(Cl)c(Cl)c2)CC/C1=C\c1ccc(Cl)c(Cl)c1
19 | Not Active | Not Active | Not Active | Not Active | 0.9 | 3.046 | Not Active | Not Active | Not Active | – | – | – | – | O=C1/C(=C/c2ccccc2)CCC/C1=C\c1ccccc1 [2,6-DIBENZYLIDENECYCLOHEXANONE]
20 | Not Active | Not Active | Not Active | Not Active | 2.6 | 2.585 | Not Active | Not Active | Not Active | – | – | – | – | CN(C)c1ccc(/C=C2\CCC/C(=C\c3ccc(N(C)C)cc3)C2=O)cc1
21 | Not Active | Not Active | Not Active | Not Active | – | – | – | – | – | – | – | – | – | O=C1/C(=C/c2cccc(Cl)c2)CC/C1=C\c1cccc(Cl)c1
22 | Not Active | Not Active | Not Active | Not Active | 41.5 | – | – | – | – | – | – | 0.6 | 1.382 | COc1cc(/C=C/C(=O)/C=C/c2ccc(O)c(OC)c2)ccc1O
23 | Not Active | Not Active | Not Active | Not Active | 36.6 | 1.437 | – | – | – | – | – | – | – | O=C1/C(=C/c2ccccc2)CC/C1=C\c1ccccc1
24 | Not Active | Not Active | Not Active | Not Active | 26.6 | 1.575 | – | – | – | – | – | – | – | O=C(/C=C/c1ccc(Cl)cc1)/C=C/c1ccc(Cl)cc1
25 | Not Active | Not Active | Not Active | Not Active | – | – | – | – | – | – | – | – | – | O=C(/C=C/c1ccc(Cl)c(Cl)c1)/C=C/c1ccc(Cl)c(Cl)c1
26 | Not Active | Not Active | Not Active | Not Active | 4 | 2.398 | – | – | – | – | – | – | – | O=C(/C=C/c1ccc(C(F)(F)F)cc1)/C=C/c1ccc(C(F)(F)F)cc1
27 | Not Active | Not Active | Not Active | Not Active | – | – | – | – | – | – | – | – | – | CN(C)c1ccc(/C=C2\CC/C(=C\c3ccc(N(C)C)cc3)C2=O)cc1
28 | Not Active | Not Active | Not Active | Not Active | – | – | – | – | – | – | – | – | – | COc1ccc(/C=C2\CC/C(=C\c3ccc(OC)cc3)C2=O)cc1
29 | Not Active | Not Active | Not Active | Not Active | – | – | Not Active | Not Active | Not Active | – | – | – | – | CC(C)(C)c1cc(/C=C2\CCC/C(=C\c3cc(C(C)(C)C)c(O)c(C(C)(C)C)c3)C2=O)cc(C(C)(C)C)c1O
